# Measurements: patent publication US20170050957A1, “4-AMINO-6-(HETEROCYCLIC)PICOLINATES AND 6-AMINO-2-(HETEROCYCLIC)PYRIMIDINE-4-CARBOXYLATES AND THEIR USE AS HERBICIDES” (Dow AgroSciences LLC, priority 2013, published 2017)
# Read-outs that look alike come from different tables or passages of the source.
# Experiments:
# [1] = tested on: Key Grass and Sedge Weeds as well as Grass Crops; experiment: Post-emergent Test II herbicidal activity (Table 16); type: in vivo; settings: post-emergence, 336 h, 14 d; for pest or weed control at 35 g/ha: 35 g ai/ha; for pest or weed control at 70 g/ha: 70 g ai/ha; for pest or weed control at 140 g/ha: 140 g ai/ha
# Summary of the method: (§1)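 Visual injury rating (0 = none, 100% = complete kill) made 14 d after treatment, relative to untreated plants. Compounds in an acetone/DMSO/aqueous crop-oil/surfactant spray, at top rate and serial 1/2×-1/16× rates, were applied at 187 L/ha overhead to first-second true leaf plants raised 7-21 d in greenhouse.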
# [2] = tested on: Key Broadleaf Weed and Crop Species; experiment: Post-emergent Test II herbicidal activity (Table 15); type: in vivo; settings: post-emergence, 336 h, 14 d; for pest or weed control at 35 g/ha: 35 g ai/ha; for pest or weed control at 70 g/ha: 70 g ai/ha; for pest or weed control at 140 g/ha: 140 g ai/ha
# Summary of the method: as §1
# [3] = Cyperus esculentus, yellow nutsedge (Cyperus esculentus), read-out: Visual Growth Reduction (%) 14 Days After Application, CYPES
# [4] = Echinochloa crus-galli, barnyardgrass (Echinochloa crus-galli), read-out: Visual Growth Reduction (%) 14 Days After Application, ECHCG
# [5] = Oryza sativa, rice (Oryza sativa), read-out: Visual Growth Reduction (%) 14 Days After Application, ORYSA
# [6] = Setaria faberi, giant foxtail (Setaria faberi), read-out: Visual Growth Reduction (%) 14 Days After Application, SETFA
# [7] = Triticum aestivum, wheat, spring (Triticum aestivum), read-out: Visual Growth Reduction (%) 14 Days After Application, TRZAS
# [8] = Zea mays, maize, corn (Zea mays), read-out: Visual Growth Reduction (%) 14 Days After Application, ZEAMX
# [9] = Abutilon theophrasti, velvetleaf (Abutilon theophrasti), read-out: Visual Growth Reduction (%) 14 Days After Application, ABUTH
# [10] = Amaranthus retroflexus, redroot pigweed (Amaranthus retroflexus), read-out: Visual Growth Reduction (%) 14 Days After Application, AMARE
# [11] = Brassica napus, oilseed rape, canola (Brassica napus), read-out: Visual Growth Reduction (%) 14 Days After Application, BRSNN
# [12] = Chenopodium album, lambsquarters (Chenopodium album), read-out: Visual Growth Reduction (%) 14 Days After Application, CHEAL
# [13] = Euphorbia heterophylla, wild poinsettia (Euphorbia heterophylla), read-out: Visual Growth Reduction (%) 14 Days After Application, EPHHL
# [14] = Helianthus annuus, sunflower (Helianthus annuus), read-out: Visual Growth Reduction (%) 14 Days After Application, HELAN
smiles,measurement,setting,value
COC(=O)c1nc(-c2ccc3sccc3c2)c(C)c(N)c1Cl [Compound 3.06],melting point,,155 to 159 °C
same,pest or weed control at 35 g/ha,[1]; [3],0 to 29%
same,pest or weed control at 70 g/ha,[1]; [3],0 to 29%
same,pest or weed control at 140 g/ha,[1]; [3],0 to 29%
same,pest or weed control at 35 g/ha,[1]; [4],0 to 29%
same,pest or weed control at 70 g/ha,[1]; [4],0 to 29%
same,pest or weed control at 140 g/ha,[1]; [4],0 to 29%
same,pest or weed control at 35 g/ha,[1]; [5],0 to 29%
same,pest or weed control at 70 g/ha,[1]; [5],0 to 29%
same,pest or weed control at 140 g/ha,[1]; [5],0 to 29%
same,pest or weed control at 35 g/ha,[1]; [6],0 to 29%
same,pest or weed control at 70 g/ha,[1]; [6],0 to 29%
same,pest or weed control at 140 g/ha,[1]; [6],0 to 29%
same,pest or weed control at 35 g/ha,[1]; [7],0 to 29%
same,pest or weed control at 70 g/ha,[1]; [7],0 to 29%
same,pest or weed control at 140 g/ha,[1]; [7],0 to 29%
same,pest or weed control at 35 g/ha,[1]; [8],0 to 29%
same,pest or weed control at 70 g/ha,[1]; [8],0 to 29%
same,pest or weed control at 140 g/ha,[1]; [8],0 to 29%
same,pest or weed control at 35 g/ha,[2]; [9],45 to 59%
same,pest or weed control at 70 g/ha,[2]; [9],60 to 74%
same,pest or weed control at 140 g/ha,[2]; [9],85 to 94%
same,pest or weed control at 35 g/ha,[2]; [10],85 to 94%
same,pest or weed control at 70 g/ha,[2]; [10],85 to 94%
same,pest or weed control at 140 g/ha,[2]; [10],95 to 100%
same,pest or weed control at 35 g/ha,[2]; [11],30 to 44%
same,pest or weed control at 70 g/ha,[2]; [11],30 to 44%
same,pest or weed control at 140 g/ha,[2]; [11],45 to 59%
same,pest or weed control at 35 g/ha,[2]; [12],30 to 44%
same,pest or weed control at 70 g/ha,[2]; [12],60 to 74%
same,pest or weed control at 140 g/ha,[2]; [12],60 to 74%
same,pest or weed control at 35 g/ha,[2]; [13],0 to 29%
same,pest or weed control at 70 g/ha,[2]; [13],0 to 29%
same,pest or weed control at 140 g/ha,[2]; [13],30 to 44%
same,pest or weed control at 35 g/ha,[2]; [14],95 to 100%
same,pest or weed control at 70 g/ha,[2]; [14],95 to 100%
same,pest or weed control at 140 g/ha,[2]; [14],95 to 100%
